Reference: ChEMBL document CHEMBL1641460, “Potent and selective thiophene urea-templated inhibitors of S6K” (Bioorg Med Chem Lett, 2011)

What was measured:
[1] = target: Serine/threonine-protein kinase MARK1 (Homo sapiens) (UniProt Q9P0L2); assay: Inhibition of MARK1 at 10 uM
[2] = target: Mitogen-activated protein kinase 1 (Homo sapiens) (UniProt P28482); assay: Inhibition of MAPK1 at 1 uM
[3] = target: Inhibitor of nuclear factor kappa-B kinase subunit beta (Homo sapiens) (UniProt O14920); assay: Inhibition of IKBKB at 1 uM
Chain of Inhibitor of nuclear factor kappa-B kinase subunit beta (Homo sapiens) (O14920 whole entry, canonical isoform): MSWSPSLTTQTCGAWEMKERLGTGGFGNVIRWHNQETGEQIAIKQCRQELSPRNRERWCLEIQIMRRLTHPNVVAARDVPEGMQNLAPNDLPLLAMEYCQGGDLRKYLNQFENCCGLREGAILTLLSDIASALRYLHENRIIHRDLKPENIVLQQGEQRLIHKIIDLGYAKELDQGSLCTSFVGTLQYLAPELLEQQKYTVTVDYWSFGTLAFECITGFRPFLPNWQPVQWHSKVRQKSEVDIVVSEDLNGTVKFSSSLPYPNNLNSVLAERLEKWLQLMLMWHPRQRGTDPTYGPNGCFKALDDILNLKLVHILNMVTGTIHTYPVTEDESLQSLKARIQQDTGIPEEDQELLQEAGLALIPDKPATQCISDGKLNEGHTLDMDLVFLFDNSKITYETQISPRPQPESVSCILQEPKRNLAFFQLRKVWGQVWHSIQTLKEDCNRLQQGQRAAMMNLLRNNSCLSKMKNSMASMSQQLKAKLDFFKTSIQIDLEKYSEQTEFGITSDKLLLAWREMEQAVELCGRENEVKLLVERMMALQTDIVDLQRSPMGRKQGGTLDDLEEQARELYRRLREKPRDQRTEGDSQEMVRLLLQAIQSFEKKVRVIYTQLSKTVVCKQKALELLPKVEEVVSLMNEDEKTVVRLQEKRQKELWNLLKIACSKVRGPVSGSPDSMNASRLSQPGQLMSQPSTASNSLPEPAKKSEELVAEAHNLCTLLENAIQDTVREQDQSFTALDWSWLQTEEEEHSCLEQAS

[4] = target: Casein kinase I isoform delta (Homo sapiens) (UniProt P48730); assay: Inhibition of CSNK1D at 1 uM
Chain of Casein kinase I isoform delta (Homo sapiens) (P48730 whole entry, looked up, canonical isoform): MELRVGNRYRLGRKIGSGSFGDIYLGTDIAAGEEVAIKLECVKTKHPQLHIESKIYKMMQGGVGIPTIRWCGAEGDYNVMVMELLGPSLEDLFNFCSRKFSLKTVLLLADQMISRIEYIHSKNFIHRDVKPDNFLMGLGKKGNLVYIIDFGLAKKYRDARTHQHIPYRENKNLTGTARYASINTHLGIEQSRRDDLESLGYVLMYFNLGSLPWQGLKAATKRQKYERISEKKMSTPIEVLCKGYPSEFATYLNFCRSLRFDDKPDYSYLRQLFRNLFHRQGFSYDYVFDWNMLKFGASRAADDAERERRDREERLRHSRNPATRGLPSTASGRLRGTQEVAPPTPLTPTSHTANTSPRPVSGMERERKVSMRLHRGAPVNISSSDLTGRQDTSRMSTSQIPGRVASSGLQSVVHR

[5] = target: Serine/threonine-protein kinase Chk1 (Homo sapiens) (UniProt O14757); assay: Inhibition of CHEK1 at 10 uM
CYP3A4 = CYP3A4 (Homo sapiens, UniProt P08684); assay: Inhibition of CYP3A4 at 3 uM by LC/MS/MS analysis; format: ADME
[6] = target: MAP kinase-activated protein kinase 2 (Homo sapiens) (UniProt P49137); assay: Inhibition of MAPKAPK2 at 1 uM
[7] = target: Calcium/calmodulin-dependent protein kinase type 1 (Homo sapiens) (UniProt Q14012); assay: Inhibition of CAMK1 at 1 uM
Chain of Calcium/calmodulin-dependent protein kinase type 1 (Homo sapiens) (Q14012 whole entry, looked up): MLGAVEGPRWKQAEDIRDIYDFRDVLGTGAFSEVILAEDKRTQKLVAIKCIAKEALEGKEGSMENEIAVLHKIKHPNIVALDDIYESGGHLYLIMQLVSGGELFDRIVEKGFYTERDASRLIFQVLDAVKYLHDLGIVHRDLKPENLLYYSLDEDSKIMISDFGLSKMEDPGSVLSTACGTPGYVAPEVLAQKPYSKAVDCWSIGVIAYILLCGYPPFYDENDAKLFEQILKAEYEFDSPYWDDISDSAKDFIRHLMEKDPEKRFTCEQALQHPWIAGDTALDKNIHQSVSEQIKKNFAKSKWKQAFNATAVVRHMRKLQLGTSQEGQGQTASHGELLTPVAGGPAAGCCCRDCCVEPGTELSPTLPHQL

[8] = target: Insulin receptor (Homo sapiens) (UniProt P06213); assay: Inhibition of INSR at 1 uM
[9] = target: Tyrosine-protein kinase JAK3 (Homo sapiens) (UniProt P52333); assay: Inhibition of JAK3 at 10 uM
[10] = target: cAMP-dependent protein kinase catalytic subunit alpha (Homo sapiens) (UniProt P17612); assay: Inhibition of PRKACA at 1 uM
[11] = target: Glycogen synthase kinase-3 beta (Homo sapiens) (UniProt P49841); assay: Inhibition of GSK3b at 1 uM
[12] = target: Hepatocyte growth factor receptor (Homo sapiens) (UniProt P08581); assay: Inhibition of MET at 10 uM
Chain of Hepatocyte growth factor receptor (Homo sapiens) (P08581 whole entry): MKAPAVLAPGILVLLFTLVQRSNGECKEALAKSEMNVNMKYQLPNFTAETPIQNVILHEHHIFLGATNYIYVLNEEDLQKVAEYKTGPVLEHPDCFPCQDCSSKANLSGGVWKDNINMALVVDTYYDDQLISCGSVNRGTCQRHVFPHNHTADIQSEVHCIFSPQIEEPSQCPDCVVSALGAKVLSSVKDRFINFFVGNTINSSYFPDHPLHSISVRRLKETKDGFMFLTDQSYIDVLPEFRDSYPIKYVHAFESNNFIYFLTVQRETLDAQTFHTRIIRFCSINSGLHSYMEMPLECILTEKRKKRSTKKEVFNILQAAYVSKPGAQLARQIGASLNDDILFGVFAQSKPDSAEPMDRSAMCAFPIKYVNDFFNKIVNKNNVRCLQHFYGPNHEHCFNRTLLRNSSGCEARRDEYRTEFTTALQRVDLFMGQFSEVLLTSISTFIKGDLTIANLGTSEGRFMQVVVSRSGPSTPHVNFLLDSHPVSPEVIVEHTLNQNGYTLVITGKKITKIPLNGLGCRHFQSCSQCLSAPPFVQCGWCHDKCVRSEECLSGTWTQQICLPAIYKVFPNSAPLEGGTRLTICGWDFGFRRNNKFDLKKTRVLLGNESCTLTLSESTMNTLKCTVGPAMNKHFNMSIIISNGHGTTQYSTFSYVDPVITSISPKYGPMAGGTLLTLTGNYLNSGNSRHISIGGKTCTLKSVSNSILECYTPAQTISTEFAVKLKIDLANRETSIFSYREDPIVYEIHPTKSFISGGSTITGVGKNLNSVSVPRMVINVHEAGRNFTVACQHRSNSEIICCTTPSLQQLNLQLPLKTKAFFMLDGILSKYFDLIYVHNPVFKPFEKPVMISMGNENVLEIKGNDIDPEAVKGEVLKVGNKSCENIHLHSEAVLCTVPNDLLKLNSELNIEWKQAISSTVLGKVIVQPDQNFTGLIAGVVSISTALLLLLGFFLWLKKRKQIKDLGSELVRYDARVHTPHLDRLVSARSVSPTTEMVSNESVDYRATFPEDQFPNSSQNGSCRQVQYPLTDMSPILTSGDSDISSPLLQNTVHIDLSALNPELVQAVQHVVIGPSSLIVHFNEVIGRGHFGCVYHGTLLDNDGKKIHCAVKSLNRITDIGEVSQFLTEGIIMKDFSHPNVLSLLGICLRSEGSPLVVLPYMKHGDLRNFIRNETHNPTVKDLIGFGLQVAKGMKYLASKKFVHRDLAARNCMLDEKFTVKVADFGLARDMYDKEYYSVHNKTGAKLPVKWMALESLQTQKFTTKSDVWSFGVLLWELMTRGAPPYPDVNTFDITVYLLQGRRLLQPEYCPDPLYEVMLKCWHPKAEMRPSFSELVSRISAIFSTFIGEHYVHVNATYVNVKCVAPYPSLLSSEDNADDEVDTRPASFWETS

[13] = target: 3-phosphoinositide-dependent protein kinase 1 (Homo sapiens) (UniProt O15530); assay: Inhibition of PDPK1 at 10 uM
[14] = target: Casein kinase I isoform delta (Homo sapiens) (UniProt P48730); assay: Inhibition of CSNK1D at 10 uM
[15] = target: Proto-oncogene tyrosine-protein kinase Src (Homo sapiens) (UniProt P12931); assay: Inhibition of SRC at 1 uM
[16] = target: Cyclin-dependent kinase 6 (Homo sapiens) (UniProt Q00534); assay: Inhibition of CDK6 at 10 uM
[17] = target: Serine/threonine-protein kinase 3 (Homo sapiens) (UniProt Q13188); assay: Inhibition of STK3 at 10 uM
[18] = target: Mitogen-activated protein kinase kinase kinase 9 (Homo sapiens) (UniProt P80192); assay: Inhibition of MAP3K9 at 1 uM
[19] = target: Inhibitor of nuclear factor kappa-B kinase subunit epsilon (Homo sapiens) (UniProt Q14164); assay: Inhibition of IKBKE at 1 uM
Chain of Inhibitor of nuclear factor kappa-B kinase subunit epsilon (Homo sapiens) (Q14164 whole entry): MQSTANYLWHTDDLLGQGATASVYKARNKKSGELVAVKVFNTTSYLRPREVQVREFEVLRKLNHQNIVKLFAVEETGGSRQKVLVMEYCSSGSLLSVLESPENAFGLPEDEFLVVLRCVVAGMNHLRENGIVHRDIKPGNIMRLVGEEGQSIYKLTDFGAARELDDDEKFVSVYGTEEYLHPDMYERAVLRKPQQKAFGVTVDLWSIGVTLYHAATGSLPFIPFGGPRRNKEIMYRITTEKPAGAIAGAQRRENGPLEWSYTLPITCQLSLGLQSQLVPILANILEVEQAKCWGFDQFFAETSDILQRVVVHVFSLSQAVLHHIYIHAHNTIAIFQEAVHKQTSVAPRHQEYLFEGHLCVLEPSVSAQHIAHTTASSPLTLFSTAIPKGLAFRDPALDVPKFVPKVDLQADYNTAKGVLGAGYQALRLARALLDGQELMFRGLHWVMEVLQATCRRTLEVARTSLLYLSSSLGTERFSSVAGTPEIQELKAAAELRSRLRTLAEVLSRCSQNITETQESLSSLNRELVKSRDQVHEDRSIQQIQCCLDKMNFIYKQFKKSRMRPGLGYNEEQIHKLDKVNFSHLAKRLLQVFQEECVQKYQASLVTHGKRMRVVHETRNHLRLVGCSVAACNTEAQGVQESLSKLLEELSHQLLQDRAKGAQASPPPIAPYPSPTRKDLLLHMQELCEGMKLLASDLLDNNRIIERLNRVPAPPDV

[20] = target: Serine/threonine-protein kinase Sgk1 (Homo sapiens) (UniProt O00141); assay: Inhibition of SGK1 at 10 uM
[21] = target: Protein kinase C beta type (Homo sapiens) (UniProt P05771); assay: Inhibition of PRKCB at 10 uM
[22] = target: Tyrosine-protein kinase ABL1 (Homo sapiens) (UniProt P00519); assay: Inhibition of ABL1 at 1 uM
[23] = target: Protein kinase C zeta type (Homo sapiens) (UniProt Q05513); assay: Inhibition of PRKCZ at 10 uM
CYP1A2 = target: T1, CYP1A2 (Homo sapiens, UniProt P05177); assay: Inhibition of CYP1A2 at 3 uM by LC/MS/MS analysis; format: ADME
T1 sequence (P05177 whole entry): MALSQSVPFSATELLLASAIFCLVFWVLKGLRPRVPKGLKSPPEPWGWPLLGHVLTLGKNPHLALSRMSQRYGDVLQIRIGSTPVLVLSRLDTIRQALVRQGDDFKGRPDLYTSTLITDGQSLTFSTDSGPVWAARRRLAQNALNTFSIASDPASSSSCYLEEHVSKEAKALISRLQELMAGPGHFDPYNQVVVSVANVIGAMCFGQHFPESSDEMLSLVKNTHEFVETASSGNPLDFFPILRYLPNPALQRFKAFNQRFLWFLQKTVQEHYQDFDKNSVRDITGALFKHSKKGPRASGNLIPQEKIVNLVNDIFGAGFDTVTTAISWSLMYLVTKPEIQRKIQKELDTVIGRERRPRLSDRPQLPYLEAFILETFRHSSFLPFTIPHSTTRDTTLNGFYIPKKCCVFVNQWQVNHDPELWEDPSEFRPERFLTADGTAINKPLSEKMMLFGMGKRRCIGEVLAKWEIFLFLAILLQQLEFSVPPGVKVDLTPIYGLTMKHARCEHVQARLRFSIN

[24] = target: Tyrosine-protein kinase Lck (Homo sapiens) (UniProt P06239); assay: Inhibition of LCK at 1 uM
Chain of Tyrosine-protein kinase Lck (Homo sapiens) (P06239 2-509 limits assumed): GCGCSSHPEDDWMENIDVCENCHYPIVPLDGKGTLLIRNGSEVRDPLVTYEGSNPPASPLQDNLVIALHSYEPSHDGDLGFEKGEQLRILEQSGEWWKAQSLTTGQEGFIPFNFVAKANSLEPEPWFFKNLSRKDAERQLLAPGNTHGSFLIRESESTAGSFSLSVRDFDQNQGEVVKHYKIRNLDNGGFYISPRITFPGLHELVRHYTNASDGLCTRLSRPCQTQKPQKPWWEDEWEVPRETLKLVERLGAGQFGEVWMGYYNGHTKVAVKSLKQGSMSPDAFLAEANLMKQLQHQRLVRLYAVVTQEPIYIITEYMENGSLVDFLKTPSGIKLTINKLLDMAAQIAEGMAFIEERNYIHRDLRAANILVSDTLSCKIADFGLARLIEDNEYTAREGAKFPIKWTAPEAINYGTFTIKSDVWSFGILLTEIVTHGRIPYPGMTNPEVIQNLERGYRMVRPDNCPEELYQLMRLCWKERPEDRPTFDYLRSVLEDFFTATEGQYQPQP

[25] = target: Mitogen-activated protein kinase 14 (Homo sapiens) (UniProt Q16539); assay: Inhibition of MAPK14 at 10 uM
[26] = target: Inhibitor of nuclear factor kappa-B kinase subunit epsilon (Homo sapiens) (UniProt Q14164); assay: Inhibition of IKBKE at 10 uM
[27] = target: Dual specificity protein kinase CLK1 (Homo sapiens) (UniProt P49759); assay: Inhibition of CLK1 at 1 uM
Chain of Dual specificity protein kinase CLK1 (Homo sapiens) (P49759 whole entry, looked up): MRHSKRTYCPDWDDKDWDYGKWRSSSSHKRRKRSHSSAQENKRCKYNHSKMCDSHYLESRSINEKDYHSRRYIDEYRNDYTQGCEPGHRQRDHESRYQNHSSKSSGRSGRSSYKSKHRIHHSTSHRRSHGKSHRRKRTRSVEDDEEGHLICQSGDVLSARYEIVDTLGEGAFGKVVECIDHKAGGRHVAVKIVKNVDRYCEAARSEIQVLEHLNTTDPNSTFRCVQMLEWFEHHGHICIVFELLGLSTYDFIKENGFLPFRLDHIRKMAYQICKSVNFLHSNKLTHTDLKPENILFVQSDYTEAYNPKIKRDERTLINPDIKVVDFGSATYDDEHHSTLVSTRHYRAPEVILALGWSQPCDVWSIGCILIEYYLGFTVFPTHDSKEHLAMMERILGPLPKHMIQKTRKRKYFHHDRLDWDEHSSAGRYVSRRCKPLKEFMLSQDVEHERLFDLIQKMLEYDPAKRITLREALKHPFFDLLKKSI

[28] = target: Dual specificity protein kinase CLK1 (Homo sapiens) (UniProt P49759); assay: Inhibition of CLK1 at 10 uM
[29] = target: Serine/threonine-protein kinase PAK 4 (Homo sapiens) (UniProt O96013); assay: Inhibition of PAK4 at 1 uM
[30] = target: Inhibitor of nuclear factor kappa-B kinase subunit beta (Homo sapiens) (UniProt O14920); assay: Inhibition of IKBKB at 10 uM
[31] = target: Fibroblast growth factor receptor 1 (Homo sapiens) (UniProt P11362); assay: Inhibition of FGFR1 at 1 uM
[32] = target: Tyrosine-protein kinase BTK (Homo sapiens) (UniProt Q06187); assay: Inhibition of BTK at 10 uM
[33] = target: Tyrosine-protein kinase Lck (Homo sapiens) (UniProt P06239); assay: Inhibition of LCK at 10 uM
[34] = target: Aurora kinase A (Homo sapiens) (UniProt O14965); assay: Inhibition of aurora A at 1 uM
Chain of Aurora kinase A (Homo sapiens) (O14965 whole entry): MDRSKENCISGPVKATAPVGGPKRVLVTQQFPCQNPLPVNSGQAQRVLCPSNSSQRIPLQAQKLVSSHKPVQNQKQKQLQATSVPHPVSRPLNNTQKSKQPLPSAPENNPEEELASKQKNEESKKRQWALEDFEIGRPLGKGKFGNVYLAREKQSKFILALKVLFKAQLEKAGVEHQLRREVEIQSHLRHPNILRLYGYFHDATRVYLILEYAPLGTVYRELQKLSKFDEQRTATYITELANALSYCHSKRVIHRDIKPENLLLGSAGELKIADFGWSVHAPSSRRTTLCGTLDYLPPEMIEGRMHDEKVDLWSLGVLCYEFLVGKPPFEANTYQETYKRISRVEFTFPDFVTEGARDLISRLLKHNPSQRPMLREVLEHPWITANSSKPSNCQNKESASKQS

[35] = target: Epidermal growth factor receptor (Homo sapiens) (UniProt P00533); assay: Inhibition of EGFR at 1 uM
[36] = target: Hepatocyte growth factor receptor (Homo sapiens) (UniProt P08581); assay: Inhibition of MET at 1 uM
[37] = target: Myosin light chain kinase 2, skeletal/cardiac muscle (Homo sapiens) (UniProt Q9H1R3); assay: Inhibition of MYLK2 at 10 uM
[38] = target: Serine/threonine-protein kinase PAK 4 (Homo sapiens) (UniProt O96013); assay: Inhibition of PAK4 at 10 uM
[39] = target: Casein kinase II subunit alpha (Homo sapiens) (UniProt P68400); assay: Inhibition of CSNK2A1 at 1 uM
[40] = target: Calcium/calmodulin-dependent protein kinase type 1 (Homo sapiens) (UniProt Q14012); assay: Inhibition of CAMK1 at 10 uM
CYP2D6 = CYP2D6 (Homo sapiens, UniProt P10635); assay: Inhibition of CYP2D6 at 3 uM by LC/MS/MS analysis; format: ADME
[41] = target: Aurora kinase A (Homo sapiens) (UniProt O14965); assay: Inhibition of aurora A at 10 uM
[42] = target: Tyrosine-protein kinase BTK (Homo sapiens) (UniProt Q06187); assay: Inhibition of BTK at 1 uM

Work on `CC(C)(C)c1cc(C(=O)O)c(NC(=O)Nc2ccc3[nH]ncc3c2)s1` yielded an inhibition [1] of 20%, an inhibition [2] of 10% and an inhibition [3] of 10%. For the same compound, the inhibition [4] was 20%, the inhibition [5] was 10% and the inhibition at 3 µM (CYP3A4) was 0%. For the same compound, the inhibition [6] was 10%, the inhibition [7] was 10% and the inhibition [8] was 0%. The inhibition [9] was 40%, the inhibition [10] was 10% and the inhibition [11] was 10%. For the same compound, the inhibition [12] was 0%, the inhibition [13] was 20% and the inhibition [14] was 20%. It also gave an inhibition [15] of 0%, an inhibition [16] of 0% and an inhibition [17] of 0%. It also gave an inhibition [18] of 20%, an inhibition [19] of 10% and an inhibition [20] of 0%. The inhibition [21] was 10%, the inhibition [22] was 0% and the inhibition [23] was 20%. For the same compound, the inhibition at 3 µM (CYP1A2) was 6%, the inhibition [24] was 0% and the inhibition [25] was 10%. It also gave an inhibition [26] of 10%, an inhibition [27] of 10% and an inhibition [28] of 10%. It also gave an inhibition [29] of 0%, an inhibition [30] of 10% and an inhibition [31] of 0%. For the same compound, the inhibition [32] was 0%, the inhibition [33] was 0% and the inhibition [34] was 0%. The inhibition [35] was 10%, the inhibition [36] was 0% and the inhibition [37] was 10%. It also gave an inhibition [38] of 0%, an inhibition [39] of 30% and an inhibition [40] of 10%. For the same compound, the inhibition at 3 µM (CYP2D6) was 0%, the inhibition [41] was 0% and the inhibition [42] was 0%.
